Patent publication US4657902A, “Therapeutic use of tin mesoporphyrin” (The Rockefeller University, priority 1985, dated 1987)
Read-outs that look alike come from different tables or passages of the source.

How the values were obtained:
[1] = system: liver tryptophan pyrrolase; assay: liver tryptophan pyrrolase activity and heme saturation after parenteral administration to rats; format: in vivo, rat; conditions: 1 μmol/kg s.c.
Method: With adults afflicted with sickle cell anemia or another condition resulting in increased bilirubin concentration, the dosage unit is normally smaller since in all but the most acute situations, the bilirubin concentration is not as high as in neonates. The standard dosage with adults will normally be from about 2 to 5 mg/kg of body weight. […] In this study SnMP was administered subcutaneously at a dosage level of 1 μmol/kg of body weight to male Sprague-Dawley rats (180-200g). Control animals received an equivalent volume of aqueous isotonic saline. Tissue preparation of liver fractions for enzymic assays were conducted as described by Drummond and Kappas. Proc. Natl. Acad. Sci. USA. 78:6466-6470 (1981). Tryptophan pyrrolase activity was determined both in the absence (holoenzyme) and the presence (total enzyme) of added heme ([…]). The latter enzyme activity was calculated from the linear phase of kynurenine formation. The percent heme saturation for tryptophan pyrrolase was expressed as the ratio of holoenzyme to total enzyme (×100 ). Each data point in the figure represents the mean value of determinations in 3 to 6 animals.

[2] = biological target: T1, heme oxygenase (Rattus norvegicus, UniProt P06762); assay: rat spleen heme oxygenase incubation, in vitro inhibition; format: biochemical; conditions: for Km: normal Km 3.64 μM, read-out: Km for degradation of heme by heme oxygenase to bile pigment
T1 construct: rat spleen - heme oxygenase incubation mixtures; from tissue; host or cells: rat spleen
T1 sequence (P06762 1-289): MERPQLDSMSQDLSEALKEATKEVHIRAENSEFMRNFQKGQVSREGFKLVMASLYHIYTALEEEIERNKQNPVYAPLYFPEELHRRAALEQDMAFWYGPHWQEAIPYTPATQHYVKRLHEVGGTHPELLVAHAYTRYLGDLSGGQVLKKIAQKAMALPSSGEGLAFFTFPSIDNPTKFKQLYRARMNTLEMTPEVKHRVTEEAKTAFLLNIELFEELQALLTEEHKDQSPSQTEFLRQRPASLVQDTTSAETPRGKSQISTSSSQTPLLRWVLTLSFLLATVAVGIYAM

[3] = system: hepatic heme oxygenase; assay: hepatic heme oxygenase activity in ALA-treated 7 day old rats; format: in vivo, rat; conditions: single dose 1 μmol/kg body weight
Method: (§1) The efficacy of SnMP for controlling hyperbilirubinemia was also examined in a model of experimental postantal hyperbilirubinemia in the rat utilizing the heme precursor […] (ALA) to produce jaundice 7 days after birth (Drummond & Kappas, J. Clin. Invest., 74, 142-149, 1984). AlA (50 μmol/100g body weight) administered to suckling 7 day old neonates at 0,4 and 8 hours produced an approximately 3 fold increase in serum bilirubin levels 24 hours after the initial injection (FIG. 3). […] Heme oxygenase was assayed as earlier described (J. Biol. Chem., 253, 2321-2326, 1978).

[4] = system: serum bilirubin; assay: experimental postnatal hyperbilirubinemia produced by ALA in 7 day old rats, serum bilirubin; format: in vivo, rat; conditions: single dose 1 μmol/kg body weight at 0 time, 24 hours
Method: as §1

[5] = biliary output of bilirubin, heme and iron in rats; format: in vivo, rat
Method: It has been observed that when heme is administered alone to animals such as rats, a large output of biliary bilirubin (mono- and diglucuronide forms) occurs, with a slight output of excess heme.
It is therefore clear that the administration of SnMP to mammals increases the biliary excretion of excess heme and thus of its contained iron atom as well. They make it clear also that the excess heme which accumulates when the rate of bilirubin production is decreased by the administration of SnMP is excreted in the bile and not stored in tissues. More particularly, they make it clear that the administration of SnMP to mammals suffering acute or chronic excess of heme or iron will increase the rate at which such heme or iron will be excreted into the intestinal contents.

[6] = system: serum bilirubin; assay: serum bilirubin in newborn rats after a single subcutaneous injection at birth

Question: With tin mesoporphyrin [SnMP] as the substance, how does the “percent heme saturation of tryptophan pyrrolase” value ([1]; male Sprague-Dawley rats, in two hours) read?
Answer: approximately 80%

Question: What about the “duration of the initial high tryptophan pyrrolase activity relative to SnPP” value ([1]; rats, compared with SnPP) of the same substance?
Answer: maintained for a more extended period of time

Question: And the “inhibition of heme oxygenase activity” value ([2]; 0.025 and 0.05 μM SnMP)?
Answer: marked competitive inhibition

Question: What about the Km ([2]; SnMP 0.025 μM) of the same substance?
Answer: 11.1 µM

Question: And the Km ([2]; SnMP 0.05 μM)?
Answer: 18.2 µM

Question: And the “in vitro ability to inhibit the production of bilirubin relative to SnPP” value ([2]; compared with SnPP)?
Answer: just about as effective in this regard as SnPP

Question: What about the Ki ([2]; rat spleen heme oxygenase, read-out: inhibition constant Ki for the inhibition of the conversion of heme to bilirubin by heme oxygenase) of the same substance?
Answer: 0.013 µM

Question: And the “effect on the increase in hepatic heme oxygenase activity associated with ALA administration” value [3]?
Answer: prevented the increase

Question: And the “effect on the increase in serum bilirubin produced by ALA” value [4]?
Answer: substantially diminished

Question: What about the “output of biliary iron” value ([5]; bile duct cannulated rats) of the same substance?
Answer: increase in output of biliary iron

Question: And the biliary bilirubin output ([5]; rats, SnMP administered with heme)?
Answer: the bilirubin peak will decline

Question: And the “effect on the increase in serum bilirubin 24 hours after birth” value ([6]; 1 μmol/kg body weight s.c. once at birth)?
Answer: entirely prevented

Question: What about the “effectiveness in vivo in lowering plasma bilirubin / suppressing neonatal jaundice relative to SnPP” value ([6]; compared with SnPP) of the same substance?
Answer: 5-10 times
